ChEMBL document CHEMBL1201862, “PubChem BioAssay data set” (2004)
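1) Cells in 96-well plates. 2) Compound, 48 h, 5 concentrations. 3) Linear interpolation between surrounding doses. 4) Unreached endpoint = highest concentration. GI50: concentration for 50% inhibition of growth.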 Activity calls are given as the source filed them. No stated cut-off is given here; in the data, active = GI50 up to about 1.1 µM and inactive = higher.

Key:
Assay in all cases: NCI tumour cell line growth inhibition, 48 h
PC-3 = tested on: PC-3
OVCAR-8 = tested on: OVCAR-8
CAKI-1 = tested on: CAKI-1
ACHN = tested on: ACHN
SW-620 = tested on: SW-620
NCI-H23 = tested on: NCI-H23
NCI-H460 = tested on: NCI-H460
TK-10 = tested on: TK-10
M14 = tested on: M14
SF-539 = tested on: SF-539
SNB-75 = tested on: SNB-75
UO-31 = tested on: UO-31
MDA-MB-231 = tested on: MDA-MB-231
MCF7 = tested on: MCF7
LOX IMVI = tested on: LOX IMVI
OVCAR-3 = tested on: OVCAR-3
COLO 205 = tested on: COLO 205
MOLT-4 = tested on: MOLT-4
HL-60 = tested on: HL-60
Hs-578T = tested on: Hs-578T

SMILES | GI50 (PC-3) | GI50 (OVCAR-8) | GI50 (CAKI-1) | GI50 (ACHN) | GI50 (SW-620) | GI50 (NCI-H23) | GI50 (NCI-H460) | GI50 (TK-10) | GI50 (M14) | GI50 (SF-539) | GI50 (SNB-75) | GI50 (UO-31) | GI50 (MDA-MB-231) | GI50 (MCF7) | GI50 (LOX IMVI) | GI50 (OVCAR-3) | GI50 (COLO 205) | GI50 (MOLT-4) | GI50 (HL-60) | GI50 (Hs-578T)
CN(C)P(=O)(Oc1occc1C(O)Cc1ccccc1)N(C)C (centres undefined) | > 100 µM (inactive) | > 100 µM (inactive) | > 100 µM (inactive) | > 100 µM (inactive) | > 100 µM (inactive) | > 100 µM (inactive) | > 100 µM (inactive) | > 100 µM (inactive) | > 100 µM (inactive) | > 100 µM (inactive) | > 100 µM (inactive) | > 100 µM (inactive) | > 100 µM (inactive) | > 100 µM (inactive) | > 100 µM (inactive) | > 100 µM (inactive) | > 100 µM (inactive) | – | – | –
c1ccc(CCN2CCc3[nH]c4ccccc4c3C2)cc1 | – | 20.4 µM (inactive) | – | 28.1 µM (inactive) | 16.1 µM (inactive) | 30.5 µM (inactive) | 13.7 µM (inactive) | 24.3 µM (inactive) | 17.1 µM (inactive) | 22.8 µM (inactive) | 29 µM (inactive) | 13.6 µM (inactive) | 33 µM (inactive) | 18.8 µM (inactive) | 19.5 µM (inactive) | – | > 10 µM (inactive) | 26.5 µM (inactive) | 19 µM (inactive) | –
CCc1cccc(C)c1NC(=O)NS(=O)(=O)c1ccc(C)cc1 | – | > 100 µM (inactive) | > 100 µM (inactive) | > 100 µM (inactive) | > 100 µM (inactive) | > 100 µM (inactive) | > 100 µM (inactive) | > 100 µM (inactive) | > 100 µM (inactive) | > 100 µM (inactive) | 35.2 µM (inactive) | > 100 µM (inactive) | – | – | > 100 µM (inactive) | > 100 µM (inactive) | > 100 µM (inactive) | > 100 µM (inactive) | > 100 µM (inactive) | –
CC(=O)Oc1ccc2c(c1)Oc1cc(C(C)=O)ccc1C21OC(=O)c2ccccc21 (centres undefined) | > 100 µM (inactive) | > 100 µM (inactive) | > 100 µM (inactive) | > 100 µM (inactive) | > 100 µM (inactive) | > 100 µM (inactive) | > 100 µM (inactive) | > 100 µM (inactive) | > 100 µM (inactive) | – | 94.8 µM (inactive) | 85.5 µM (inactive) | > 100 µM (inactive) | > 100 µM (inactive) | > 100 µM (inactive) | 60.3 µM (inactive) | > 100 µM (inactive) | > 100 µM (inactive) | 44.6 µM (inactive) | –
COc1ccc2c3c1O[C@H]1C(OC)C=CC4C(C2)N(Cc2cccs2)CCC341 (some centres undefined) | – | 77.4 µM (inactive) | > 100 µM (inactive) | > 10 µM (inactive) | > 100 µM (inactive) | 38.8 µM (inactive) | > 100 µM (inactive) | 92.5 µM (inactive) | 70.6 µM (inactive) | – | – | > 100 µM (inactive) | – | – | > 100 µM (inactive) | 45.4 µM (inactive) | – | > 100 µM (inactive) | 24 µM (inactive) | > 100 µM (inactive)
CC(C)C(=O)Nc1nc2[nH]cnc2c(=O)[nH]1 | – | > 100 µM (inactive) | > 100 µM (inactive) | > 100 µM (inactive) | > 100 µM (inactive) | > 100 µM (inactive) | > 100 µM (inactive) | > 100 µM (inactive) | > 100 µM (inactive) | > 100 µM (inactive) | > 100 µM (inactive) | > 100 µM (inactive) | – | – | > 100 µM (inactive) | > 100 µM (inactive) | > 100 µM (inactive) | > 100 µM (inactive) | > 100 µM (inactive) | –
COC(=O)c1cc2c(nc1C)-c1ccccc1OS2(=O)=O | – | 79.8 µM (inactive) | > 100 µM (inactive) | > 100 µM (inactive) | > 100 µM (inactive) | > 100 µM (inactive) | > 100 µM (inactive) | 83.2 µM (inactive) | > 100 µM (inactive) | 54.5 µM (inactive) | 17.9 µM (inactive) | > 100 µM (inactive) | – | – | > 100 µM (inactive) | > 100 µM (inactive) | > 100 µM (inactive) | > 100 µM (inactive) | > 100 µM (inactive) | –
OCC1CCCC1O (centres undefined) | > 100 µM (inactive) | > 100 µM (inactive) | > 100 µM (inactive) | > 100 µM (inactive) | > 100 µM (inactive) | > 100 µM (inactive) | > 100 µM (inactive) | > 100 µM (inactive) | > 100 µM (inactive) | > 100 µM (inactive) | > 100 µM (inactive) | > 100 µM (inactive) | > 100 µM (inactive) | > 100 µM (inactive) | – | > 100 µM (inactive) | > 100 µM (inactive) | > 100 µM (inactive) | > 100 µM (inactive) | –
COc1ccc(NC(C)=O)cc1N1C(=O)/C(=C\c2cc(OC)c(OC)c(OC)c2)SC1c1ccccc1 (centres undefined) | 31.5 µM (inactive) | 48.1 µM (inactive) | 19 µM (inactive) | 44.4 µM (inactive) | 52.7 µM (inactive) | 72.8 µM (inactive) | 43.2 µM (inactive) | > 100 µM (inactive) | 49.8 µM (inactive) | 64.6 µM (inactive) | 26.9 µM (inactive) | 22.1 µM (inactive) | 19.4 µM (inactive) | 28.2 µM (inactive) | 39.3 µM (inactive) | 36.1 µM (inactive) | 39.6 µM (inactive) | 19.3 µM (inactive) | 20.4 µM (inactive) | –
CN1CCC(=O)/C(=C/c2ccccc2)C1 | – | 22 µM (inactive) | 17.9 µM (inactive) | 17.9 µM (inactive) | 4.99 µM (inactive) | 17.5 µM (inactive) | 16.3 µM (inactive) | 16.1 µM (inactive) | 13.2 µM (inactive) | 17.7 µM (inactive) | 6.85 µM (inactive) | 17.9 µM (inactive) | – | – | 5.58 µM (inactive) | 11.6 µM (inactive) | 13.7 µM (inactive) | 7.74 µM (inactive) | 9.35 µM (inactive) | –
O=C(O)COc1ccc(C(=O)/C(SS/C(C(=O)c2ccc(OCC(=O)O)c(Cl)c2Cl)=C2\C=C(c3ccc(Cl)cc3)SS2)=C2/C=C(c3ccc(Cl)cc3)SS2)c(Cl)c1Cl | – | 5.85 µM (inactive) | 28.1 µM (inactive) | 8.39 µM (inactive) | 0.435 µM (active) | 9.23 µM (inactive) | 19.1 µM (inactive) | 24.7 µM (inactive) | 13.5 µM (inactive) | 5.9 µM (inactive) | 11.1 µM (inactive) | 4.89 µM (inactive) | – | – | 3.93 µM (inactive) | 5.37 µM (inactive) | 0.339 µM (active) | 3.58 µM (inactive) | 0.252 µM (active) | –
COc1cc(C2c3cc4c(cc3[C@@H](Nc3ccc(N)cc3)C3COC(=O)[C@H]23)OCO4)cc(OC)c1O (some centres undefined) | 0.446 µM (active) | 2.22 µM (inactive) | 0.446 µM (active) | 1.25 µM (inactive) | 2.14 µM (inactive) | 0.828 µM (active) | 0.0557 µM (active) | 3.64 µM (inactive) | 1.31 µM (inactive) | 1.07 µM (active) | 1.94 µM (inactive) | 1.34 µM (inactive) | 12.3 µM (inactive) | 0.0451 µM (active) | 0.395 µM (active) | 6.1 µM (inactive) | 7.85 µM (inactive) | – | – | –
